The source made the active and inactive calls. The calls are words filed in the database; no cut-off is given here.
Experiments:
[1] = molecular target: Vascular endothelial growth factor receptor 1 (Homo sapiens) (UniProt P17948); conditions: Compound concentration 1000.0 nM
[2] = molecular target: Ribosomal protein S6 kinase alpha-3 (Homo sapiens) (UniProt P51812); conditions: Compound concentration 1000.0 nM
[3] = molecular target: Receptor-interacting serine/threonine-protein kinase 2 (Homo sapiens) (UniProt O43353); conditions: Compound concentration 1000.0 nM
[4] = molecular target: Calcium-dependent protein kinase 1 (Plasmodium falciparum) (UniProt P62344); conditions: Compound concentration 1000.0 nM
[5] = molecular target: GABA-A receptor; anion channel (Rattus norvegicus) (UniProt O09028+P15431+P18506+P18508+P19969+P20236+P23574+P23576+P28471+P28473+P30191+P62813+P63079+P63138+Q91ZM7+Q9ES14); conditions: Compound concentration 10.0 uM
[6] = molecular target: Serine/threonine-protein kinase 25 (Homo sapiens) (UniProt O00506); conditions: Compound concentration 1000.0 nM
[7] = molecular target: Ribosomal protein S6 kinase alpha-2 (Homo sapiens) (UniProt Q15349); conditions: Compound concentration 1000.0 nM
[8] = molecular target: Bone morphogenetic protein receptor type-1B (Homo sapiens) (UniProt O00238); conditions: Compound concentration 1000.0 nM
[9] = molecular target: Tyrosine-protein kinase FRK (Homo sapiens) (UniProt P42685); conditions: Compound concentration 1000.0 nM
[10] = molecular target: Transient receptor potential cation channel subfamily M member 8 (Homo sapiens, UniProt Q7Z2W7); assay: Cold activation
[11] = molecular target: Mitogen-activated protein kinase 6 (Homo sapiens) (UniProt Q16659); conditions: Compound concentration 1000.0 nM
[12] = system: Tyrosine-protein kinase ABL1 (Homo sapiens), P00519 [H396P]; conditions: Compound concentration 1000.0 nM
[13] = molecular target: Serine/threonine-protein kinase SBK1 (Homo sapiens) (UniProt Q52WX2); conditions: Compound concentration 1000.0 nM
[14] = molecular target: Calcium/calmodulin-dependent protein kinase kinase 1 (Homo sapiens) (UniProt Q8N5S9); conditions: Compound concentration 1000.0 nM
[15] = molecular target: Phosphatidylinositol 4,5-bisphosphate 3-kinase catalytic subunit delta isoform (Homo sapiens) (UniProt O00329); conditions: Compound concentration 1000.0 nM
[16] = system: Tyrosine-protein kinase ABL1 (Homo sapiens), P00519 [H396P]; conditions: Compound concentration 1000.0 nM; remark: listed apart in the source
[17] = organism: Rattus norvegicus; conditions: Compound concentration 10.0 uM
[18] = molecular target: RAC-gamma serine/threonine-protein kinase (Homo sapiens) (UniProt Q9Y243); conditions: Compound concentration 1000.0 nM
[19] = molecular target: Ephrin type-A receptor 1 (Homo sapiens) (UniProt P21709); conditions: Compound concentration 1000.0 nM
[20] = molecular target: Macrophage-stimulating protein receptor (Homo sapiens) (UniProt Q04912); conditions: Compound concentration 1000.0 nM
[21] = system: Mast/stem cell growth factor receptor Kit (Homo sapiens), P10721 [V559D]; conditions: Compound concentration 1000.0 nM
[22] = molecular target: SRSF protein kinase 2 (Homo sapiens) (UniProt P78362); conditions: Compound concentration 1000.0 nM
[23] = molecular target: Tyrosine-protein kinase CSK (Homo sapiens) (UniProt P41240); conditions: Compound concentration 1000.0 nM
[24] = molecular target: Ribosomal protein S6 kinase alpha-5 (Homo sapiens) (UniProt O75582); conditions: Compound concentration 1000.0 nM
[25] = system: Epidermal growth factor receptor (Homo sapiens), P00533 [UNDEFINED MUTATION]; conditions: Compound concentration 1000.0 nM
[26] = molecular target: Calcium/calmodulin-dependent protein kinase type 1G (Homo sapiens) (UniProt Q96NX5); conditions: Compound concentration 1000.0 nM
[27] = molecular target: Histamine H3 receptor (Homo sapiens) (UniProt Q9Y5N1); conditions: Compound concentration 10.0 uM
[28] = molecular target: Dual specificity tyrosine-phosphorylation-regulated kinase 2 (Homo sapiens) (UniProt Q92630); conditions: Compound concentration 1000.0 nM
[29] = molecular target: Myosin light chain kinase (Homo sapiens) (UniProt Q32MK0); conditions: Compound concentration 1000.0 nM
[30] = system: Receptor-type tyrosine-protein kinase FLT3 (Homo sapiens), P36888 [R834Q]; conditions: Compound concentration 1000.0 nM
[31] = molecular target: Serine/threonine-protein kinase pim-1 (Homo sapiens) (UniProt P11309); conditions: Compound concentration 1000.0 nM
[32] = molecular target: Bone morphogenetic protein receptor type-2 (Homo sapiens) (UniProt Q13873); conditions: Compound concentration 1000.0 nM
[33] = molecular target: Cyclin-dependent kinase 13 (Homo sapiens) (UniProt Q14004); conditions: Compound concentration 1000.0 nM
[34] = molecular target: Serine/threonine-protein kinase DCLK3 (Homo sapiens) (UniProt Q9C098); conditions: Compound concentration 1000.0 nM
[35] = molecular target: MAP/microtubule affinity-regulating kinase 4 (Homo sapiens) (UniProt Q96L34); conditions: Compound concentration 1000.0 nM
[36] = molecular target: Serine/threonine-protein kinase WNK1 (Homo sapiens) (UniProt Q9H4A3); conditions: Compound concentration 1000.0 nM
[37] = molecular target: Serine/threonine-protein kinase RIO2 (Homo sapiens) (UniProt Q9BVS4); conditions: Compound concentration 1000.0 nM
[38] = molecular target: Beta-adrenergic receptor kinase 1 (Homo sapiens) (UniProt P25098); conditions: Compound concentration 1000.0 nM
[39] = system: Phosphatidylinositol 4,5-bisphosphate 3-kinase catalytic subunit alpha isoform (Homo sapiens), P42336 [E545K]; conditions: Compound concentration 1000.0 nM
[40] = molecular target: TGF-beta receptor type-2 (Homo sapiens) (UniProt P37173); conditions: Compound concentration 1000.0 nM
[41] = system: Mast/stem cell growth factor receptor Kit (Homo sapiens), P10721 [V559D,T670I]; conditions: Compound concentration 1000.0 nM
[42] = molecular target: Serine/threonine-protein kinase ULK1 (Homo sapiens) (UniProt O75385); conditions: Compound concentration 1000.0 nM
[43] = molecular target: NT-3 growth factor receptor (Homo sapiens) (UniProt Q16288); conditions: Compound concentration 1000.0 nM
[44] = molecular target: Serine/threonine-protein kinase MRCK gamma (Homo sapiens) (UniProt Q6DT37); conditions: Compound concentration 1000.0 nM

Phosphatidylinositol 4,5-bisphosphate 3-kinase catalytic subunit delta isoform (Homo sapiens), sequence (O00329 whole entry, canonical isoform): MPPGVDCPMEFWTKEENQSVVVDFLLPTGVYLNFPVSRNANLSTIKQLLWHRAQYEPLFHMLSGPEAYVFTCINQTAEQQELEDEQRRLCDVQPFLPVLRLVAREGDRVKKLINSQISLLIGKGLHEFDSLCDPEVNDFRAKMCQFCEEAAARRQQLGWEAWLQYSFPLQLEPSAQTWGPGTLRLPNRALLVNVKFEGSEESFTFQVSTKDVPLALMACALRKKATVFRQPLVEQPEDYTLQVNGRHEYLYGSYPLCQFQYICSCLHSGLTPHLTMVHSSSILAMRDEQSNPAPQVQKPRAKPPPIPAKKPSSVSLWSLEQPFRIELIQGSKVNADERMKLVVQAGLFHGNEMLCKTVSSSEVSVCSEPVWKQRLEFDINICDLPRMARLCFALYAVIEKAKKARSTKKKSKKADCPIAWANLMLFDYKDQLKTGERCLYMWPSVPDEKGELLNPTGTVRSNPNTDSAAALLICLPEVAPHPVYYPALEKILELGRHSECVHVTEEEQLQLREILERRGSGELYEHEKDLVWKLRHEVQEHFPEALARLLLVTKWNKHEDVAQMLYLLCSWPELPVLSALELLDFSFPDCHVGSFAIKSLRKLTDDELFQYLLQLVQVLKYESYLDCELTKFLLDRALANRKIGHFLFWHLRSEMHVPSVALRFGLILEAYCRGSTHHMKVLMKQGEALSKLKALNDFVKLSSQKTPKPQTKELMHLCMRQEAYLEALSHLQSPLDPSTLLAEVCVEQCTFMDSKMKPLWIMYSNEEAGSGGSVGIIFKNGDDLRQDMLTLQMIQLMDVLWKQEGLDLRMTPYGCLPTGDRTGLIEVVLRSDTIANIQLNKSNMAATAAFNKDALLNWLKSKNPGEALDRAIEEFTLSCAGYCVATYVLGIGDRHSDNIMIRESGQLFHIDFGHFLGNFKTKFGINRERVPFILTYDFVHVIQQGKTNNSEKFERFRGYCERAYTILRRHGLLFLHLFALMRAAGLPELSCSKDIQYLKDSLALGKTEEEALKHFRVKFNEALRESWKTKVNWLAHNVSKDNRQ
Tyrosine-protein kinase CSK (Homo sapiens), sequence (P41240 2-450 limits assumed): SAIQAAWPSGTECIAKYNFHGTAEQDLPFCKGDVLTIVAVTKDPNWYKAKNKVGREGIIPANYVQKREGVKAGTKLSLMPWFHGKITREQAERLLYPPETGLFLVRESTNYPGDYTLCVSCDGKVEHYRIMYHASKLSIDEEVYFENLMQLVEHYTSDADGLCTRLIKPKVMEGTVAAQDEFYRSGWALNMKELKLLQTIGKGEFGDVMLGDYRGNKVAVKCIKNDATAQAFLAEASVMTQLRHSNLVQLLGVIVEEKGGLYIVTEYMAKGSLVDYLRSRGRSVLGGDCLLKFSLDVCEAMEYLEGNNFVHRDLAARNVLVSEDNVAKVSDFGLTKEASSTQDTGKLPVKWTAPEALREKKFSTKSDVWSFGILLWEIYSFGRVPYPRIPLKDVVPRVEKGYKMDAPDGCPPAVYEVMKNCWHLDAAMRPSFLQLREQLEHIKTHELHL
Serine/threonine-protein kinase SBK1 (Homo sapiens), sequence (Q52WX2 whole entry): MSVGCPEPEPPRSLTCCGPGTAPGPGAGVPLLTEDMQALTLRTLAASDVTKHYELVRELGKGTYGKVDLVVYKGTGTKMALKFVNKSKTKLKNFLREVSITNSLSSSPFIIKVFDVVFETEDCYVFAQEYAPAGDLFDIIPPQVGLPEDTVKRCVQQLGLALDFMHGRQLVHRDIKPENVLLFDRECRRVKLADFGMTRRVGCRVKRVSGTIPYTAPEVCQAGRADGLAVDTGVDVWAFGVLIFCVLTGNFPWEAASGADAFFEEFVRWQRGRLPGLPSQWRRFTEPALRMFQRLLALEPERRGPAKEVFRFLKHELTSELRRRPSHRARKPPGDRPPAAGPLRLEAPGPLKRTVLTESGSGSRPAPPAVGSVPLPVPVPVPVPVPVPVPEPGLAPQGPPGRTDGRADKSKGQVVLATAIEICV
Mast/stem cell growth factor receptor Kit (Homo sapiens), P10721 [V559D], sequence (P10721 whole entry V559D): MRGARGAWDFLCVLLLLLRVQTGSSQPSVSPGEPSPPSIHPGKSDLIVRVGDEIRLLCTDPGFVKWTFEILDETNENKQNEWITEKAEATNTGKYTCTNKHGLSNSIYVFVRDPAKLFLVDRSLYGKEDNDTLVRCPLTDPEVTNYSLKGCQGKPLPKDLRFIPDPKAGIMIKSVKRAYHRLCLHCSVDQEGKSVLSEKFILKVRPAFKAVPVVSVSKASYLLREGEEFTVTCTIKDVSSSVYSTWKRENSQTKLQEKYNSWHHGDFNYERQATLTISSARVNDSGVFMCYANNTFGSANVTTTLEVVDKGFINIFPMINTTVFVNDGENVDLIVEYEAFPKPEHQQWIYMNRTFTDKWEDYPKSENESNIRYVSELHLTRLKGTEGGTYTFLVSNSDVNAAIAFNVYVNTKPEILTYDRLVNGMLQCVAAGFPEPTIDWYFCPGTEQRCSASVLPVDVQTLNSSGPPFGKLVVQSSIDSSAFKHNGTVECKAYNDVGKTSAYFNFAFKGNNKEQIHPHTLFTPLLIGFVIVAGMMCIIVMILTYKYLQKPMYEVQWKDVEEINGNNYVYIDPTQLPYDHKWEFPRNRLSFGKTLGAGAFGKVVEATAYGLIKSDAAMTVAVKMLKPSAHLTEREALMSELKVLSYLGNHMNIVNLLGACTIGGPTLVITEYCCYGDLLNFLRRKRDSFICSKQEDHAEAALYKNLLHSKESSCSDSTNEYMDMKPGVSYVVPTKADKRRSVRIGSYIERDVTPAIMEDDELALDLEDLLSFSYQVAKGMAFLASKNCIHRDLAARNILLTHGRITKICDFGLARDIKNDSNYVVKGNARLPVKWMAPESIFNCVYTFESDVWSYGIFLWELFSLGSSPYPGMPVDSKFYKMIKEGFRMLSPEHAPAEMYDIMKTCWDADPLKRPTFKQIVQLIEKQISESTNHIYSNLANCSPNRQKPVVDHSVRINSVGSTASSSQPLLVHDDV
Bone morphogenetic protein receptor type-2 (Homo sapiens), sequence (Q13873 whole entry): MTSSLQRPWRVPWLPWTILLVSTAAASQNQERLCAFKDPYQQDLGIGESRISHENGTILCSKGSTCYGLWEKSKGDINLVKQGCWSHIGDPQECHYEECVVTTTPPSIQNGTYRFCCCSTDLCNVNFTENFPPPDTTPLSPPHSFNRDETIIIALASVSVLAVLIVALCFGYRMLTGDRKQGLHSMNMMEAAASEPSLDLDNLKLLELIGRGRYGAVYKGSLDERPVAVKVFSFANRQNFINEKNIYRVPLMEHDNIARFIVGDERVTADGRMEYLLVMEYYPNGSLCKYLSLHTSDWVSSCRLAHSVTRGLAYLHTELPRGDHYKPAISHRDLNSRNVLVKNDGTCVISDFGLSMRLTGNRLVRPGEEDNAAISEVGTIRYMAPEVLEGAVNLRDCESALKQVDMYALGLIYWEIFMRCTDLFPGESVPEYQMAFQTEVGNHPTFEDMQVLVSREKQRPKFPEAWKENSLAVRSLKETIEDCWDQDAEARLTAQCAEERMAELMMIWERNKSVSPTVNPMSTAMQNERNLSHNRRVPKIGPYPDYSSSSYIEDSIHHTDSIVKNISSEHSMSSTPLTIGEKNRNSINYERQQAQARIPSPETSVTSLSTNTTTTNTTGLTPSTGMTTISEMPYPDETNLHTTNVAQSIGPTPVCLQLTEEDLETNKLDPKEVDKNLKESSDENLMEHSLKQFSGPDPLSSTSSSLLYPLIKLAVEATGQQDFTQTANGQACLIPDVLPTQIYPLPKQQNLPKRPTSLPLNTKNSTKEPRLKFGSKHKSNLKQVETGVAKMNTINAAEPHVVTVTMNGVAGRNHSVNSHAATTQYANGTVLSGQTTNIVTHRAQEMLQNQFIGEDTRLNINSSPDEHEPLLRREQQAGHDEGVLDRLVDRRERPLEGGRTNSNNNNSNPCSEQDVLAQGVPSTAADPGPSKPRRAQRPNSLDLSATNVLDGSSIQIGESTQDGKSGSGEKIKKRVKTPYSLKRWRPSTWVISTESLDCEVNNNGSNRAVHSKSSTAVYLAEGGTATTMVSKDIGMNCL
MAP/microtubule affinity-regulating kinase 4 (Homo sapiens), sequence (Q96L34 whole entry): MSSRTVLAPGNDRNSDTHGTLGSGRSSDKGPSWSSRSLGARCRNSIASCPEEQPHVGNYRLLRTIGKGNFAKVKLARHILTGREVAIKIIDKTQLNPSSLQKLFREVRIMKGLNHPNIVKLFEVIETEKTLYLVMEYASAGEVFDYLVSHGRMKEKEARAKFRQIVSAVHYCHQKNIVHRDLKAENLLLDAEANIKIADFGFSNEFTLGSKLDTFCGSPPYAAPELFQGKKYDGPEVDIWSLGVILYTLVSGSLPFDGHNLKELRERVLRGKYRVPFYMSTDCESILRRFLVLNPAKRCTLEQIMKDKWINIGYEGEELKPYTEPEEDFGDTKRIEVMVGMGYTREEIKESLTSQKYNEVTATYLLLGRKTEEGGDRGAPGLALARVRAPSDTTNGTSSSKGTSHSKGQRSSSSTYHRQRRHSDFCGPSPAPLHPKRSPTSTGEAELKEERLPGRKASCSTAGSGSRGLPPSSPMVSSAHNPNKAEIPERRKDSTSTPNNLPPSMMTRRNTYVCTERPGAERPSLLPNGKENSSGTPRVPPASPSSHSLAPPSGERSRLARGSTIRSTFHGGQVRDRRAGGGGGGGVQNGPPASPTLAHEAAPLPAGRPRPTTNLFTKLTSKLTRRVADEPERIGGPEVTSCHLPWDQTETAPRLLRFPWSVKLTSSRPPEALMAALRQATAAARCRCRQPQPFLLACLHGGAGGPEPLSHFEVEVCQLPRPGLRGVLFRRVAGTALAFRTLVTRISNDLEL
Serine/threonine-protein kinase pim-1 (Homo sapiens), sequence (P11309 whole entry, looked up): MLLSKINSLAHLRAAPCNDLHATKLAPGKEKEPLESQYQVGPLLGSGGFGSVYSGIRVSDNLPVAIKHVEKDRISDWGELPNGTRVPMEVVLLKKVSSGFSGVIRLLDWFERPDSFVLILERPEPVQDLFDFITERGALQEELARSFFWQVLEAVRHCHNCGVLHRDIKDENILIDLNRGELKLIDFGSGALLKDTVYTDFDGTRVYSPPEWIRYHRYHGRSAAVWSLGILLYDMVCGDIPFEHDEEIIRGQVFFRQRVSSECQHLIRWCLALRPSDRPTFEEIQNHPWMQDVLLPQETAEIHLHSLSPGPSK

`C[C@H](c1ccc(F)cc1)N(Cc1cccc(C(=O)O)c1)C(=O)c1cnc2ccccc2c1` [PF-05105679] was tested, and the residual activity [1] was 100%, the residual activity [2] was 89% and the residual activity [3] was 82%. It also gave a residual activity [4] of 100%, an inhibition [5] of 20.8% and a residual activity [6] of 100%. It also gave a residual activity [7] of 100%, a residual activity [8] of 95% and a residual activity [9] of 77%. The IC50 [10] was 480 nM (active), the residual activity [11] was 100% and the residual activity [12] was 100%. The residual activity [13] was 92%, the residual activity [14] was 100% and the residual activity [15] was 100%. For the same compound, the residual activity [16] was 73%, the inhibition [17] was 70% and the residual activity [18] was 100%. For the same compound, the residual activity [19] was 100%, the residual activity [20] was 100% and the residual activity [21] was 92%. For the same compound, the residual activity [22] was 98%, the residual activity [23] was 100% and the residual activity [24] was 98%. It also gave a residual activity [25] of 100%, a residual activity [26] of 100% and an inhibition [27] of 16.6%. For the same compound, the residual activity [28] was 85%, the residual activity [29] was 100% and the residual activity [30] was 100%. For the same compound, the residual activity [31] was 100%, the residual activity [32] was 75% and the residual activity [33] was 98%. The residual activity [34] was 100%, the residual activity [35] was 100% and the residual activity [36] was 100%. The residual activity [37] was 80%, the residual activity [38] was 80% and the residual activity [39] was 100%. The residual activity [40] was 100%, the residual activity [41] was 98% and the residual activity [42] was 86%. The residual activity [43] was 92% and the residual activity [44] was 100%.

Source: ChEMBL document CHEMBL4507296 (2021)
